Measured values published in US10858340B2, “Crystal of salt of quinazoline derivative” (CHIA TAI TIANQING PHARMACEUTICAL GROUP CO., LTD., priority 2016, dated 2020).

Columns and labels:
[1] = Stability test of crystal: accelerated test; assay type: physicochemical; conditions: 40° C. ± 2° C., relative humidity of 75% ± 5%
Method: (§1) The XRPD was measured using a PHASER BRUKER D2 X-ray powder diffractometer with a wavelength of 1.54060 Å. The melting point was measured using an YRT-3 melting point apparatus (manufactured by Tianjin University). The content was determined by HPLC with reference to Chinese Pharmacopoeia, 2010 edition, Part II, Appendix V D, using octadecylsilane bonded silica gel as a filler, and ammonium formate buffer solution and acetonitrile as a mobile phase; detection wavelength of 260 nm and column temperature of 40° C. The moisture content was determined using a METTLER TOLEDO DL31 Karl Fischer moisture analyzer.
(§2) The conditions and methods for the stability test of crystal were performed according to the requirements of the Chinese Pharmacopoeia (2010 edition), Part II, Appendix XIX C, Guidelines for Stability Tests of Active Pharmaceutical Ingredients and Pharmaceutical Preparations. The crystalline Form A prepared in Example 1 was used as a test sample. A medicinal low-density polyethylene bag was used as an inner package for a sample, and polyester/aluminum/polyethylene composite bag for pharmaceutical packaging was used as an outer packaging material for a sample.

[2] = Stability test of crystal: long-term test; assay type: physicochemical; conditions: 25° C. ± 2° C., relative humidity of 60% ± 10%
Method: as §1, §2

Content of the crystalline Form A of the maleate of the compound of Formula (I) (HPLC) ([1]; 0 month): 99.4%
Moisture ([1]; 0 month): 0.17%
Content of the crystalline Form A of the maleate of the compound of Formula (I) (HPLC) ([1]; 1 month): 99.3%
Moisture ([1]; 1 month): 0.19%
Content of the crystalline Form A of the maleate of the compound of Formula (I) (HPLC) ([1]; 2 months): 99.2%
Moisture ([1]; 2 months): 0.18%
Content of the crystalline Form A of the maleate of the compound of Formula (I) (HPLC) ([1]; 3 months): 99.2%
Moisture ([1]; 3 months): 0.19%
Content of the crystalline Form A of the maleate of the compound of Formula (I) (HPLC) ([1]; 6 months): 99.3%
Moisture ([1]; 6 months): 0.20%
Content of the crystalline Form A of the maleate of the compound of Formula (I) (HPLC) ([2]; 0 month): 99.4%
Moisture ([2]; 0 month): 0.17%
Content of the crystalline Form A of the maleate of the compound of Formula (I) (HPLC) ([2]; 3 months): 99.3%
Moisture ([2]; 3 months): 0.19%
Content of the crystalline Form A of the maleate of the compound of Formula (I) (HPLC) ([2]; 6 months): 99.4%
Moisture ([2]; 6 months): 0.20%
Content of the crystalline Form A of the maleate of the compound of Formula (I) (HPLC) ([2]; 9 months): 99.2%
Moisture ([2]; 9 months): 0.21%
Content of the crystalline Form A of the maleate of the compound of Formula (I) (HPLC) ([2]; 12 months): 99.4%
Moisture ([2]; 12 months): 0.22%
Content of the crystalline Form A of the maleate of the compound of Formula (I) (HPLC) ([2]; 18 months): 99.2%
Moisture ([2]; 18 months): 0.24%
SMILES: C=CC(=O)N1CCC(Nc2cc3c(Nc4ccc(F)c(Cl)c4)ncnc3cc2OC)CC1
